# Measurements: US20260345728A1, “COMBINATION THERAPY WITH BRAF INHIBITORS FOR THE TREATMENT OF CANCER” (FUNDACIÓ PRIVADA INSTITUT D'INVESTIGACIÓ ONCOLÒGICA DE VALL …, priority 2023, published 2026)
# Experiments:
# melanoma SkMel37 cells = experiment: AlamarBlue cell viability with ZIP synergy scoring (SynergyFinder 3.0), SkMel37; type: cell-based, human; settings: single agent; 5 days; FIG. 1
# Experimental: A human melanoma cell line with mutations in BRAF (BRAF^V600E) (SkMel37) was used. Cells were plated in 96 well plates and treated on the following day with increasing concentrations of dabrafenib and Omomyc, alone or in combination. After 5 days of treatment, media was removed and AlamarBlue™ Cell Viability Reagent was added to each well, incubated for 3 hours until metabolized, and fluorescence was read with a microplate reader using an excitation between 530-560 and an emission at 590 nm.
# Synergy was evaluated using SynergyFinder 3.0 web application derived from lanevsky A et al. Nucleic Acids Res. 2022; 50(W1):W739-W743.
# Synergy scores can be interpreted as the average excess response due to drug interactions. Synergy scores close to 0 give limited confidence in synergy or antagonism. So, when the synergy scores are: less than −10, the interaction between two drugs is likely to be antagonistic. From −10 to 10, the interaction between two drugs is likely to be additive. Greater than 10, the interaction between two drugs is likely to be synergistic.
# late-stage melanoma = settings: cited from earlier work
# [1] = test system: wild type and mutant BRAF metastatic melanoma; settings: cited from earlier work
# mutant BRAF = settings: cited from earlier work
SMILES,reduction of viability of the cells (melanoma SkMel37 cells),tumors that develop resistance to the treatment (late-stage melanoma) [%],"off-target side-effects ([1]; human, in vivo)",clinical activity ([1]; monotherapy or in combination with dacarbazine),selectivity for mutant BRAF (mutant BRAF)
CC(C)(C)c1nc(-c2cccc(NS(=O)(=O)c3c(F)cccc3F)c2F)c(-c2ccnc(N)n2)s1 [dabrafenib],significantly reduces the viability of the cells,20,,,
CCCS(=O)(=O)Nc1ccc(F)c(C(=O)c2c[nH]c3ncc(-c4ccc(Cl)cc4)cc23)c1F [vemurafenib],,20,,,
CNC(=O)c1cc(Oc2ccc(NC(=O)Nc3ccc(Cl)c(C(F)(F)F)c3)cc2)ccn1 [sorafenib],,,intolerable off-target side-effects,failed to demonstrate any activity,unable to selectively target mutant BRAF
